According to patent US5977102A, “Pyrimido [5, 4-d] pyrimidines, pharmaceuticals containing these compounds, their use and processes for their preparation” (Dr. Karl Thomae GmbH, priority 1996, dated 1999):

How the values were obtained:
Assay type in all cases: cell-based
[1] = test system: F/L-HERc cells; assay: Inhibition of IL-3-dependent proliferation of F/L-HERc cells; details: Mus musculus, murine IL-3, 48 hours
Description: (§1) In this case, an interleukin-3 (IL-3)-dependent cell line of murine origin was used and was genetically modified in such a way that it expresses functional human EGF-R. Proliferation of these cells, which are called F/L-HERc, can therefore be stimulated either by murine IL-3 or by EGF (see von Ruden, T. et al. in EMBO J. 7, 2749-2756 (1988) and Pierce, J. H. et al. in Science 239, 628-631 (1988)).
(§2) The starting material for the F/L-HERc cells was the cell line FDC-P1,whose preparation has been described by Dexter, T. M. et al. in J. Exp. Med. 152, 1036-1047 (1980). However, it is also possible as an alternative to use other growth factor-dependent cells (see, for example, Pierce, J. H. et al. in Science 239, 628-631 (1988), Shibuya, H. et al. in Cell 70, 57-67 (1992) and Alexander, W. S. et al. in EMBO J. 10, 3683-3691 (1991)). Recombinant retroviruses as described in von Ruden, T. et al., EMBO J. 7, 2749-2756 (1988) were used for expression of the human EGF-R cDNA (see Ullrich, A. et al. in Nature 309, 418-425 (1984)) with the difference that the retroviral vector LXSN (see Miller, A. D. et al. in BioTechniques 7, 980-990 (1989)) was employed for expression of the EGF-R cDNA, and the line GP+E86 (see Markowitz, D. et al. in J. Virol. 62, 1120-1124 (1988)) was used as packaging cell.
(§3) The test was carried out as follows:
(§4) F/L-HERc cells were cultivated in RPMI/1640 medium (BioWhittaker), supplemented with 10% fetal calf serum (FCS, Boehringer Mannheim), 2 mM glutamine (BioWhittaker), standard antibiotics and 20 ng/ml human EGF (Promega), at 37° C. and 5% CO2. To investigate the inhibitory activity of the compounds according to the invention, 1.5×10^4 cells were cultivated in the above medium (200 μl) per well in triplicates in 96-well plates, stimulating proliferation of the cells either with EGF (20 ng/ml) or with murine IL-3. The source used for IL-3 was culture supernatants from the cell line X63/0 mIL-3 (see Karasuyama, H. et al. in Eur. J. Immunol. 18, 97-104 (1988)). The compounds according to the invention were dissolved in 100% dimethyl sulphoxide (DMSO) and added in various dilutions to the cultures, with the maximum DMSO concentration being 1%. The cultures were incubated at 37° C. for 48 hours.
(§5) To determine the inhibitory activity of the compounds according to the invention, the relative cell count was measured in O.D. units using the Cell Titre 96™ AQueous Non-Radioactive Cell Proliferation Assay (Promega). The relative cell count was calculated as a per cent of the control (F/L-HERc cells without inhibitor), and the concentration of active substance which inhibits the proliferation of the cells by 50% (IC50) was inferred.

[2] = target: T1, human EGF-R (Homo sapiens, UniProt P00533); assay: Inhibition of EGF-dependent proliferation of F/L-HERc cells; details: EGF (20 ng/ml), 48 hours
T1 construct: expressed in transfected cells; host or cells: F/L-HERc: murine IL-3-dependent FDC-P1 cells infected with recombinant retrovirus (vector LXSN, packaging line GP+E86) carrying human EGF-R cDNA
T1 sequence (P00533 25-1210): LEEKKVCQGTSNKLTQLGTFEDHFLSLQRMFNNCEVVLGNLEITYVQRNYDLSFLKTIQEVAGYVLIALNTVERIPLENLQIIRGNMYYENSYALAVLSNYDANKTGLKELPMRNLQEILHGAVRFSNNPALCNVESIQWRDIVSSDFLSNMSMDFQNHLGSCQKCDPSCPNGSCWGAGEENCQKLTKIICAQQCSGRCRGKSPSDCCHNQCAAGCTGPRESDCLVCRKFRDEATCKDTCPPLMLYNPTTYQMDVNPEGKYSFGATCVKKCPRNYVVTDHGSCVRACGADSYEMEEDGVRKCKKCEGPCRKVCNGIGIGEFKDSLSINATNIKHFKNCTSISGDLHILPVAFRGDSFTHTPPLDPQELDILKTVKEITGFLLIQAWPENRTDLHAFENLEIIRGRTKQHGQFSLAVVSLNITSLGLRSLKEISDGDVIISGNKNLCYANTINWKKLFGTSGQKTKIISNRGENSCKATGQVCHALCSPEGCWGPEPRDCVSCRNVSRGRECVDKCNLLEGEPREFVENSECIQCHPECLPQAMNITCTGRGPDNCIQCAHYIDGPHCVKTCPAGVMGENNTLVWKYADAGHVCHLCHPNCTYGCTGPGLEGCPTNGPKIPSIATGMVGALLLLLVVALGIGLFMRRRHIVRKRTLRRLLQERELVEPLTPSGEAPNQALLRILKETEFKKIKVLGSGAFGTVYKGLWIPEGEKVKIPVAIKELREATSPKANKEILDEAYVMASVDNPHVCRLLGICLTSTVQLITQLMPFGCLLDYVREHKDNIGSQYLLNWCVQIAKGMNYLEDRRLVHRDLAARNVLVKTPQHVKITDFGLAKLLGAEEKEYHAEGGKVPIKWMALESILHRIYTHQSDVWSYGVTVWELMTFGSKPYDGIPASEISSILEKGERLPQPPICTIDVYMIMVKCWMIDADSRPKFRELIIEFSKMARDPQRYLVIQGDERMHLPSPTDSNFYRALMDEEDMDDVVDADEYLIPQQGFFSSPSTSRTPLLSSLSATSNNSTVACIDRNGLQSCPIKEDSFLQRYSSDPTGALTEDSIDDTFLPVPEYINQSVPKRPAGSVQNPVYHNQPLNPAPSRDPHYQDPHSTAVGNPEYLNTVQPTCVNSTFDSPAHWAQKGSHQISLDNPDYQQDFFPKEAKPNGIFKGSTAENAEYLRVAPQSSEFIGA
Description: as §1, §2, §3, §4, §5

[3] = test system: human tumour cell line KB; assay: Inhibition of EGF/TGF-alpha-stimulated KB cell proliferation ([3H]-thymidine incorporation); details: KB cells, TGF-alpha [10 ng/ml] or EGF [20 ng/ml], 60 hours, then [3H]-thymidine 16-18 h
Experimental: To do this, the cells were washed twice and 1500 cells per well were plated out in a 96-well plate in 200 μl of IMDM (BioWhittaker) without serum in the presence of 50 μM mercaptoethanol, standard antibiotics, TGF-alpha [10 ng/ml] or EGF [20 ng/ml] and of various concentrations of the substances according to the invention (triplicates, maximum DMSO concentration 1%, see proliferation test with F/L-HERc cells). After 60 hours, [^3 H]-thymidine (0.1 μCi in 10 μl) was added for about 16-18 h.

| Compound | IC50 [2] [nM] | IC50 [3] [nM] | IC50 [1] [nM] |
| --- | --- | --- | --- |
| c1cc(Nc2ncnc3cnc(N4CCOCC4)nc23)c2cccnc2c1 [1(1), 4-(5-quinolylamino)-6-morpholinopyrimido[5,4-d]pyrimidine] | 2000 |  | 10000 |
| c1cnc2c(Nc3ncnc4cnc(N5CCOCC5)nc34)cccc2c1 [1(3), 4-(8-quinolylamino)-6-morpholinopyrimido[5,4-d]pyrimidine] | 800 |  |  |
| c1cc(Nc2ncnc3cnc(N4CCOCC4)nc23)c2nsnc2c1 [1(5), 4-[4-(2,1,3-benzothiadiazolyl)amino]-6-morpholinopyrimido[5,4-d]pyrimidine] | 1000 |  |  |
| c1cncc(Nc2ncnc3cnc(N4CCOCC4)nc23)c1 [1(9), 4-(3-pyridylamino)-6-morpholinopyrimido[5,4-d]pyrimidine] | 6000 |  |  |
| c1cc(Nc2ncnc3cnc(N4CCOCC4)nc23)ccn1 [1(13), 4-(4-pyridylamino)-6-morpholinopyrimido[5,4-d]pyrimidine] | 10000 |  | 9000 |
| Clc1cccc(CNc2ncnc3cnc(N4CCOCC4)nc23)c1 [1(15), 4-(3-chlorobenzylamino)-6-morpholinopyrimido[5,4-d]-pyrimidine] | 1 |  | > 10000 |
| c1ccc2c(c1)CCC(Nc1ncnc3cnc(NC4CC4)nc13)C2 (stereo not shown) [1(16), 4-(1,2,3,4-tetrahydro-2-naphthylamino)-6-cyclopropylaminopyrimido[5,4-d]pyrimidine] | 200 |  |  |
| O[C@H]1CC[C@H](Nc2ncc3ncnc(Nc4ccc5[nH]ccc5c4)c3n2)CC1 [2(1), 4-(5-indolylamino)-6-[trans-(4-hydroxycyclohexyl)amino]pyrimido[5,4-d]pyrimidine] | 1 |  | > 10000 |
| Cc1cccc(Nc2ncnc3cnc(-n4ccnc4)nc23)c1 [2(2), 4-[(3-methylphenyl)amino]-6-(1-imidazolyl)pyrimido-[5,4-d]pyrimidine] | 400 |  |  |
| Fc1ccc(Nc2ncnc3cnc(NCc4ccccn4)nc23)cc1Cl [2(7), 4-[(3-chloro-4-fluorophenyl)amino]-6-(2-picolylamino)pyrimido[5,4-d]pyrimidine] | 175 |  | > 1000 |
| O=C(N1CCC(Nc2ncc3ncnc(Nc4ccc(F)c(Cl)c4)c3n2)CC1)C(F)(F)F [2(8), 4-[(3-chloro-4-fluorophenyl)amino]-6-[1-trifluoroacetyl-4-piperidinylamino]pyrimido[5,4-d]pyrimidine] | 15 |  | > 20000 |
| Fc1ccc(Nc2ncnc3cnc(N4CCC(c5ccncc5)CC4)nc23)cc1Cl [2(9), 4-[(3-chloro-4-fluorophenyl)amino]-6-[4-(4-pyridyl)-1-piperidinyl]pyrimido[5,4-d]pyrimidine] | 225 |  | > 20000 |
| NCc1cccc(CNc2ncc3ncnc(Nc4ccc(F)c(Cl)c4)c3n2)c1 [2(11), 4-[(3-chloro-4-fluorophenyl)amino]-6-[3-(aminomethyl)benzylamino]pyrimido[5,4-d]pyrimidine] | 190 |  |  |
| NCc1ccc(CNc2ncc3ncnc(Nc4ccc(F)c(Cl)c4)c3n2)cc1 [2(12), 4-[(3-chloro-4-fluorophenyl)amino]-6-[4-(aminomethyl)benzylamino]pyrimido[5,4-d]pyrimidine] | 98 |  |  |
| O[C@H]1CC[C@H](Nc2ncc3ncnc(Nc4ccc5c(c4)Cc4ccccc4-5)c3n2)CC1 [2(15), 4-[2-fluorenylamino]-6-(trans-4-hydroxycyclohexylamino)pyrimido[5,4-d]pyrimidine] | > 10000 |  |  |
| CN1[C@@H]2CC[C@H]1C[C@@H](Nc1ncc3ncnc(Nc4ccc(F)c(Cl)c4)c3n1)C2 [2(18), 4-[(3-chloro-4-fluorophenyl)amino]-6-(endo-tropinylamino)pyrimido[5,4-d]pyrimidine] | 138 |  | > 10000 |
| CN1[C@@H]2CC[C@H]1C[C@H](Nc1ncc3ncnc(Nc4ccc(F)c(Cl)c4)c3n1)C2 [2(19), 4-[(3-chloro-4-fluorophenyl)amino]-6-(exo-tropinylamino)pyrimido[5,4-d]pyrimidine] | 28 |  | > 10000 |
| Fc1ccc(Nc2ncnc3cnc(NCc4ccncc4)nc23)cc1Cl [Example 2, 4-[(3-Chloro-4-fluorophenyl)amino]-6-(4-picolylamino)pyrimido[5,4-d]pyrimidine] | 50 | 400 | > 1000 |

Further lines, with some results ahead:

| IC50 [2] [nM] | IC50 [3] [nM] | Compound | IC50 [1] [nM] |
| --- | --- | --- | --- |
| 1000 |  | c1cnc2ccc(Nc3ncnc4cnc(N5CCOCC5)nc34)cc2c1 [1(2), 4-(6-quinolylamino)-6-morpholinopyrimido[5,4-d]pyrimidine] |  |
| 125 |  | c1nc(Nc2ccc3[nH]ncc3c2)c2nc(N3CCOCC3)ncc2n1 [1(4), 4-(5-indazolylamino)-6-morpholinopyrimido[5,4-d]pyrimidine] |  |
| 2300 |  | c1cc2cc(Nc3ncnc4cnc(N5CCOCC5)nc34)ccc2cn1 [1(14), 4-(6-isoquinolylamino)-6-morpholinopyrimido[5,4-d]-pyrimidine] | 2200 |
| 138 |  | CN1CCC2(CC1)CN(c1ncc3ncnc(Nc4ccc(F)c(Cl)c4)c3n1)C2 [2(3), 4-[(3-chloro-4-fluorophenyl)amino]-6-(7-methyl-2,7-diazaspiro[3.5]-2-nonyl)pyrimido[5,4-d]pyrimidine] | > 10000 |
| 200 |  | O=C(CN1CCN(c2ncc3ncnc(Nc4ccc(F)c(Cl)c4)c3n2)CC1)N1CCCC1 [2(4), 4-[(3-chloro-4-fluorophenyl)amino]-6-[4-(1-pyrrolidinylcarbonylmethyl)-1-piperazinyl]pyrimido[5,4-d]pyrimidine] | > 10000 |
| 40 |  | O=C(CN1CCN(c2ncc3ncnc(Nc4ccc(F)c(Cl)c4)c3n2)CC1)N1CCOCC1 [2(5), 4-[(3-chloro-4-fluorophenyl)amino]-6-[4-(morpholinocarbonylmethyl)-1-piperazinyl]pyrimido[5,4-d]pyrimidine] | > 10000 |
| 275 |  | Fc1ccc(Nc2ncnc3cnc(N4CCN(c5ccccn5)CC4)nc23)cc1Cl [2(10), 4-[(3-chloro-4-fluorophenyl)amino]-6-[4-(2-pyridyl)-1-piperazinyl]pyrimido[5,4-d]pyrimidine] | > 20000 |
| 21 |  | c1nc(Nc2ccc3[nH]ccc3c2)c2nc(N3CCOCC3)ncc2n1 [Example 1, 4-(5-Indolylamino)-6-morpholinopyrimido[5,4-d]pyrimidine] | 10000 |
| 3 | 100 | Fc1ccc(Nc2ncnc3cnc(NN4CCOCC4)nc23)cc1Cl [Example 2(6), 4-[(3-chloro-4-fluorophenyl)amino]-6-[(4-morpholinyl)amino]pyrimido[5,4-d]pyrimidine] | > 10000 |
